Results taken from US7094930B2, “Pharmaceutically acceptable salts of sertraline and pharmaceutical compositions thereof” (Pfizer Inc, priority 2003, dated 2006).
Structures can show the parent of a compound that is named as a salt.

How the values were obtained:
Type in all cases: physicochemical
[1] = hygroscopicity at relative humidity
pH in aqueous solution = details: (native) pH of the aqueous solution of the salt
aqueous solubility = assay: aqueous solubility

Row | hygroscopicity ([1]; at 100% relative humidity) | pH in aqueous solution (pH in aqueous solution) | aqueous solubility (aqueous solubility) [µg/mL] | hygroscopicity ([1]; at 90% relative humidity) | Compound
1 |  | 3.4 | 2800 | approximately 0.3% | CN[C@H]1CC[C@@H](c2ccc(Cl)c(Cl)c2)c2ccccc21 [sertraline fumaric acid salt, Fumaric Acid Salt of Sertraline]
2 |  | 4.1 | 400 | approximately 0.1% | CN[C@H]1CC[C@@H](c2ccc(Cl)c(Cl)c2)c2ccccc21 [sertraline p-toluenesulfonic acid salt, P-Toluenesulfonic Acid Salt of Sertraline]

The remaining lines, values behind:

Row | Compound | hygroscopicity ([1]; at 100% relative humidity) | pH in aqueous solution (pH in aqueous solution) | aqueous solubility (aqueous solubility) [µg/mL] | hygroscopicity ([1]; at 90% relative humidity)
3 | CN[C@H]1CC[C@@H](c2ccc(Cl)c(Cl)c2)c2ccccc21 [sertraline (−)-camphor-10-sulfonic acid salt] [(−)-Camphor-10-sulfonic Acid Salt of Sertraline] | approximately 0.4% | 4.6 | 1500 | 
4 | CN[C@H]1CC[C@@H](c2ccc(Cl)c(Cl)c2)c2ccccc21 [sertraline L-tartaric acid salt, L-Tartaric Acid Salt of Sertraline] | less than 0.1% | 3.0 | 4800 | 
5 | CN[C@H]1CC[C@@H](c2ccc(Cl)c(Cl)c2)c2ccccc21 [sertraline benzenesulfonic acid salt, Benzenesulfonic Acid Salt of Sertraline] |  | 4.6 | 900 | approximately 0.3%
6 | CN[C@H]1CC[C@@H](c2ccc(Cl)c(Cl)c2)c2ccccc21 [sertraline benzoic acid salt, Benzoic Acid Salt of Sertraline] | approximately 0.1% | 5.2 | 520 | 
